Where a name gives a salt, the structure may show the parent alone. Read-outs that look alike come from different tables or passages of the source.
How the values were obtained:
Na^+,K^+-ATPase = Na^+,K^+-ATPase (Canis lupus familiaris, UniProt P50997); test: Dog kidney Na+,K+-ATPase inhibition (hydrolysis of 32P-ATP); assay type: biochemical
[1] = test system: spontaneous hypertensive rats of the Milan (MHS); test: Systolic blood pressure fall in spontaneous hypertensive rats (MHS), tail-cuff; assay type: in vivo, rat; conditions: five weeks, vs vehicle control
anesthetized guinea-pig = test: Inotropic effect and lethal dose, slow intravenous infusion in anesthetized guinea-pig; conditions: for % decrease from Emax after 20 min from the end of the infusion: 20 minutes after the end of the infusion; for Lethal dose/ED80: calculated in the died animals; for Maximum dose infused: in the survived animals; for Dead/treated / ED80 (dose increasing +dP/dTmax by 80%) / EDmax (dose inducing maximum positive inotropic effect) / Emax % increase in +dP/dTmax: slow intravenous infusion over 90 minutes; for safety ratio compared with reference cardiotonics / duration of the inotropic effect: in words; for duration of the inotropic effect: after stopping the infusion
[2] = dog kidney enzyme, read-out: Na^+,K^+-ATPase Inhibition IC50
[3] = Na^+,K^+-ATPase Inhibition IC50

## C[C@]12CCC(=NOCCN)CC1C(=O)C[C@@H]1[C@@H]2CC[C@]2(C)C(=O)CC[C@@H]12.Cl (mixture of isomers) [Compd. 22b, (EZ) 3-(2-aminoethoxyimino)androstane-6,17-dione hydrochloride, reference compound]
Na^+,K^+-ATPase; [2]
  IC50: 0.33 µM
[1]; 10 μg/kg/os daily
  SBP - %: 2.2%
  SBP - mm Hg (decrease in systolic blood pressure): 3.6 +/− 4.8 mm Hg
[1]; 100 μg/kg/os daily
  SBP - %: 6.6%
  SBP - mm Hg (decrease in systolic blood pressure): 10.7 +/− 7.5 mm Hg
Anesthetized guinea-pig
  % decrease from Emax after 20 min from the end of the infusion: 100%
  Lethal dose/ED80: 22.6
  Maximum dose infused: 32.1 µmol/kg
  Dead/treated: 7/8
  ED80 (dose increasing +dP/dTmax by 80%): 1.82 µmol/kg
  EDmax (dose inducing maximum positive inotropic effect): 5.74 µmol/kg
  Emax % increase in +dP/dTmax: 182%

## CNCCCON=C1CCC2(C)C(C1)NC(=O)CC1C3CCC(=O)C3(C)CCC12 (stereo not shown) [I-ac, (E,Z) 3-(3-N-Methylaminopropoxyimino)-6-aza-7a-homoandrostane-7,17-dione fumarate]
Na^+,K^+-ATPase; [2]
  IC50: 19 µM
[1]; 10 μg/kg/os daily
  SBP - %: 4.2%
  SBP - mm Hg (decrease in systolic blood pressure): 7.2 +/− 0.7 mm Hg

## CC12CCC3C(CC(=O)NC4CC(=NOC5CCNC5)CCC43C)C1CCC2=O [I-ad, (E,Z) 3-[3-(R)-Pyrrolidinyl]oxyimino-6-aza-7a-homoandrostane-7,17-dione fumarate]
Na^+,K^+-ATPase; [3]
  IC50: 0.95 µM

## CC12CCC3C(CC(=S)NC4CC(=NOCCN)CCC43C)C1CCC2=O (stereo not shown) [I-aj, (E,Z) 3-(2-Aminoethoxyimino)-6-aza-7a-homo-7-thioxoandrostane-17-one hydrochloride]
Na^+,K^+-ATPase; [2]
  IC50: 6.5 µM

## CC12CCC3C(CCNC4CC(=NOCCN)CCC43C)C1CCC2=O (stereo not shown) [I-ak, (E,Z)—3-(2-Aminoethoxyimino)-6-aza-7a-homoandrostane-17-one dihydrochloride]
Na^+,K^+-ATPase; [2]
  IC50: 29 µM

## CC12CCC3C(CCNC4CC(=NOC5CCNC5)CCC43C)C1CCC2=O [I-am, (E,Z) 3-[3-(R)-Pyrrolidinyl]oxyimino-6-aza-7a-homoandrostane-17-one dihydrochloride]
Na^+,K^+-ATPase; [3]
  IC50: 9.5 µM

## CC12CCC3C(CCN(C=O)C4CC(=NOCCN)CCC34C)C1CCC2=O (stereo not shown) [I-an, (E,Z) 3-(2-Aminoethoxyimino)-6-aza-6-formyl-7a-homoandrostane-17-one hydrochloride]
Na^+,K^+-ATPase; [2]
  IC50: 23 µM

## CON=C1CC2C3CCC(=O)C3(C)CCC2C2(C)CCC(=NOCCN)CC2N1 (stereo not shown) [I-at, (E,Z) 3-(2-Aminoethoxyimino)-6-aza-7a-homo-7-(Z)-methoxyimino-androstane-17-one hydrochloride]
Na^+,K^+-ATPase; [2]
  IC50: 48 µM

## CON=C1CC2C3CCC(=O)C3(C)CCC2C2(C)CCC(=NOC3CCNC3)CC2N1 [I-au, 3-(E,Z)-[3-(R)-Pyrrolidinyl]oxyimino-6-aza-7a-homo-7-(Z)-methoxyimino-androstane-17-one hydrochloride]
Na^+,K^+-ATPase; [3]
  IC50: 68 µM

## CC12CCC3C(NC(=O)CC4CC(=NOCCN)CCC43C)C1CCC2=O (stereo not shown) [I-av, (E,Z) 3-(2-Aminoethoxyimino)-7a-aza-7a-homoandrostane-7,17-dione hydrochloride]
Na^+,K^+-ATPase; [2]
  IC50: 27 µM

## CNCCCON=C1CCC2(C)C(CC(=O)NC3C4CCC(=O)C4(C)CCC32)C1 (stereo not shown) [I-aw, (E,Z) 3-(3-N-Methylaminopropoxyimino)-7a-aza-7a-homoandrostane-7,17-dione hydrochloride]
Na^+,K^+-ATPase; [2]
  IC50: 9.9 µM

## CC12CCC3C(NC(=O)CC4CC(=NOC5CCNC5)CCC43C)C1CCC2=O [I-ax, (E,Z) 3-[3-(R)-Pyrrolidinyl]oxyimino-7a-aza-7a-homoandrostane-7,17-dione hydrochloride]
Na^+,K^+-ATPase; [3]
  IC50: 4.8 µM

## CC12CCC3C(NCCC4CC(=NOCCN)CCC43C)C1CCC2=O (stereo not shown) [I-ay, (E,Z) 3-(2-Aminoethoxyimino)-7a-aza-7a-homoandrostane-17-one difumarate]
Na^+,K^+-ATPase; [2]
  IC50: 0.4 µM

## CNCCCON=C1CCC2(C)C(CCNC3C4CCC(=O)C4(C)CCC32)C1 (stereo not shown) [I-az, (E,Z) 3-(3-N-Methylaminopropoxyimino)-7a-aza-7a-homoandrostane-17-one difumarate]
Na^+,K^+-ATPase; [2]
  IC50: 1.8 µM

## CC12CCC3C(NCCC4CC(=NOC5CCNC5)CCC43C)C1CCC2=O [I-ba, (E,Z) 3-[3-(R)-Pyrrolidinyl]oxyimino-7a-aza-7a-homoandrostane-17-one Difumarate]
Na^+,K^+-ATPase; [3]
  IC50: 0.14 µM
Anesthetized guinea-pig
  % decrease from Emax after 20 min from the end of the infusion: 55%
  Maximum dose infused: 50.0 µmol/kg
  safety ratio compared with reference cardiotonics: higher safety ratios than those displayed by digitoxin and compd 22b
  duration of the inotropic effect: prolonged action
  Dead/treated: 0/3
  ED80 (dose increasing +dP/dTmax by 80%): 1.68 µmol/kg
  EDmax (dose inducing maximum positive inotropic effect): 10.1 µmol/kg
  Emax % increase in +dP/dTmax: 218%

## CC12CCC3C(C1CCC2=O)N(C=O)CCC1CC(=NOC2CCNC2)CCC13C [I-bd, (E,Z) 3-[3-(R)-Pyrrolidinyl]oxyimino-7a-aza-7a-formyl-7a-homoandrostane-17-one hydrochloride]
Na^+,K^+-ATPase; [2]
  IC50: 57 µM

## CC12CCC3C(COC(=O)C4CC(=NOCCN)CCC43C)C1CCC2=O (stereo not shown) [I-be, (E,Z) 3-(2-Aminoethoxyimino)-7-oxa-7a-homoandrostane-6,17-dione hydrochloride]
Na^+,K^+-ATPase; [3]
  IC50: 1.6 µM

## CNCCCON=C1CCC2(C)C(C1)C(=O)OCC1C3CCC(=O)C3(C)CCC12 (stereo not shown) [I-bf, (E,Z)-3-(3-N-Methylaminopropoxyimino)-7-oxa-7a-homoandrostane-6,17-dione hydrochloride]
Na^+,K^+-ATPase; [3]
  IC50: 1.9 µM

## CC12CCC3C(COC(=O)C4CC(=NOC5CCNC5)CCC43C)C1CCC2=O [I-bg, (E,Z) 3-[3-(R)-Pyrrolidinyl]oxyimino-7-oxa-7a-homoandrostane-6,17-dione hydrochloride]
Na^+,K^+-ATPase; [3]
  IC50: 0.81 µM

## CC12CCC3C(CC(=O)OC4CC(=NOCCN)CCC43C)C1CCC2=O (stereo not shown) [I-bh, (E,Z) 3-(2-Aminoethoxyimino)-6-oxa-7a-homoandrostane-7,17-dione fumarate]
Na^+,K^+-ATPase; [2]
  IC50: 0.24 µM

## CC12CCC3C(OC(=O)CC4CC(=NOCCN)CCC43C)C1CCC2=O (stereo not shown) [I-bi, (E,Z) 3-(2-Aminoethoxyimino)-7a-oxa-7a-homoandrostane-7,17-dione hydrochloride]
Na^+,K^+-ATPase; [2]
  IC50: 0.85 µM

## CNCCCON=C1CCC2(C)C(CC(=O)OC3C4CCC(=O)C4(C)CCC32)C1 (stereo not shown) [I-bj, (E,Z) 3-(3-N-Methylaminopropoxyimino)-7a-oxa-7a-homoandrostane-7,17-dione hydrochloride]
Na^+,K^+-ATPase; [3]
  IC50: 2.2 µM

## CC12CCC3C(OC(=O)CC4CC(=NOC5CCNC5)CCC43C)C1CCC2=O [I-bk, (E,Z) 3-[3-(R)-Pyrrolidinyl]oxyimino-7a-oxa-7a-homoandrostane-7,17-dione hydrochloride]
Na^+,K^+-ATPase; [3]
  IC50: 0.36 µM
Anesthetized guinea-pig
  % decrease from Emax after 20 min from the end of the infusion: 50%
  Maximum dose infused: 25.3 µmol/kg
  safety ratio compared with reference cardiotonics: higher safety ratios than those displayed by digitoxin and compd 22b
  duration of the inotropic effect: prolonged action
  Dead/treated: 0/3
  ED80 (dose increasing +dP/dTmax by 80%): 2.11 µmol/kg
  EDmax (dose inducing maximum positive inotropic effect): 23.9 µmol/kg
  Emax % increase in +dP/dTmax: 254%

## CC12CCC3C(C(=O)OC4CC(=NOCCN)CCC43C)C1CCC2=O (stereo not drawn) [I-bl, (E,Z) 3-(2-Aminoethoxyimino)-6-oxa-5β-androstane-7,17-dione hydrochloride]
Na^+,K^+-ATPase; [2]
  IC50: 2.5 µM

## CC12CCC3C(CC(=O)NC4CC(=NOCCN)CCC43C)C1CCC2=O (stereo not shown) [I-bm, (E) 3-(2-Aminoethoxyimino)-6-aza-7a-homoandrostane-7,17-dione fumarate]
Na^+,K^+-ATPase; [3]
  IC50: 25 µM

## CC12CCC3C(CC(=O)NC4CC(=NOCCN)CCC43C)C1CCC2=O (stereo not shown) [I-bn, (Z) 3-(2-Aminoethoxyimino)-6-aza-7a-homoandrostane-7,17-dione fumarate]
Na^+,K^+-ATPase; [3]
  IC50: 61 µM

## CC12CCC3C(CCCC4CC(=NOCCN)CCC43C)C1CCC2=O (stereo not shown) [I-bo, (E,Z) 3-(2-Aminoethoxyimino)-B-homoandrostane-17-one hydrochloride]
Na^+,K^+-ATPase; [3]
  IC50: 0.071 µM

## CC12CCC3C(CCCC4CC(=NOC5CCNC5)CCC43C)C1CCC2=O [I-bp, (E,Z)-3-[3-(R)-Pyrrolidinyl]oxyimino-B-homoandrostane-17-one hydrochloride]
Na^+,K^+-ATPase; [3]
  IC50: 0.04 µM

## CNCCCON=C1CCC2(C)C(C1)OC(=O)CC1C3CCC(=O)C3(C)CCC12 (stereo not shown) [I-bq, (E,Z)-3-(3-N-Methylaminopropoxyimino)-6-oxa-7a-homoandrostane-7,17-dione fumarate]
Na^+,K^+-ATPase; [3]
  IC50: 3.7 µM

## CC12CCC3C(CC(=O)OC4CC(=NOC5CCNC5)CCC43C)C1CCC2=O [I-br, (E,Z) 3-[3-(R)-Pyrrolidinyl]oxyimino-6-oxa-7a-homoandrostane-7,17-dione fumarate]
Na^+,K^+-ATPase; [3]
  IC50: 1.3 µM

## CC12CCC3C(CCOC4CC(=NOCCN)CCC43C)C1CCC2=O (stereo not shown) [I-bs, (E,Z)-3-(2-Aminoethoxyimino)-6-oxa-7a-homoandrostane-17-one hydrochloride]
Na^+,K^+-ATPase; [2]
  IC50: 0.13 µM

## CC12CCC3C(OCCC4CC(=NOCCN)CCC43C)C1CCC2=O (stereo not shown) [I-bt, (E,Z)-3-(2-Aminoethoxyimino)-7a-oxa-7a-homoandrostane-17-one hydrochloride]
Na^+,K^+-ATPase; [2]
  IC50: 0.16 µM

## CC12CCC3C(C(=O)NC4CC(=NOCCN)CCC43C)C1CCC2=O (stereo not shown) [I-bu, (E,Z) 3-(2-Aminoethoxyimino)-6-azaandrostane-7,17-dione hydrochloride]
Na^+,K^+-ATPase; [2]
  IC50: 1.1 µM

## CC12CCC3C(C(=O)NC4CC(=NOC5CCNC5)CCC43C)C1CCC2=O [I-bv, (E,Z) 3-[3-(R)-Pyrrolidinyl]oxyimino-6-azaandrostane-7,17-dione fumarate]
Na^+,K^+-ATPase; [3]
  IC50: 1.4 µM

## C[C@H]1O[C@@H](O[C@H]2[C@@H](O)C[C@H](O[C@H]3[C@@H](O)C[C@H](O[C@H]4CC[C@@]5(C)[C@H](CC[C@@H]6[C@@H]5C[C@@H](O)[C@]5(C)[C@@H](C7=CC(=O)OC7)CC[C@]65O)C4)O[C@@H]3C)O[C@@H]2C)C[C@H](O)[C@@H]1O [digoxin, reference compound]
Anesthetized guinea-pig
  % decrease from Emax after 20 min from the end of the infusion: 100%
  Lethal dose/ED80: 4.0
  Maximum dose infused: 1.16 µmol/kg
  Dead/treated: 10/10
  ED80 (dose increasing +dP/dTmax by 80%): 0.29 µmol/kg
  EDmax (dose inducing maximum positive inotropic effect): 0.65 µmol/kg
  Emax % increase in +dP/dTmax: 158%

Source: patent publication US8022203B2, “Amino derivatives of beta-homoandrostanes and beta-heteroandrostanes” (Sigma-Tau Industrie Farmaceutiche Riunite S.p.A., priority 2006, dated 2011)
